Experimental data published in ChEMBL document CHEMBL1141176, “Quantitative structure-activity relationship (5D-QSAR) study of combretastatin-like analogues as inhibitors of tubulin assembly” (J Med Chem, 2005).

Target: Tubulin beta-1 chain (Homo sapiens, UniProt Q9H4B7)
Assay: Concentration required for 50% inhibition of tubulin polymerization

Chain of Tubulin beta-1 chain (Q9H4B7 whole entry): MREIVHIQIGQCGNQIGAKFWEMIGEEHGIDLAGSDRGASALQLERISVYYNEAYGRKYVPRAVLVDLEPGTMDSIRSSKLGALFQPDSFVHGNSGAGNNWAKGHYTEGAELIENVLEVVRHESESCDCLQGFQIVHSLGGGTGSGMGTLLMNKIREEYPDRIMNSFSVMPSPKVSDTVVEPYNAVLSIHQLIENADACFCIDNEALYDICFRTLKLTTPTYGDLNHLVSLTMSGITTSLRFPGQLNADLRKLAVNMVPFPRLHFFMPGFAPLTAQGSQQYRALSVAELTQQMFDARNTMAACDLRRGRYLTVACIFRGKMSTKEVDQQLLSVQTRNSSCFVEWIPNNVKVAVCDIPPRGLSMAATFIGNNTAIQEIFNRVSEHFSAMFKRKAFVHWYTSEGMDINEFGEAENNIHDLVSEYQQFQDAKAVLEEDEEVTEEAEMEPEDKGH

SMILES | IC50 [nM]
COc1cc(C(=O)/C=C/c2ccc(O)c(O)c2)cc(OC)c1OC | > 100000
COc1ccc(OCc2cc(OC)c(OC)c(OC)c2)cc1O | 21000
COc1ccc(Nc2cc(OC)c(OC)c(OC)c2)cc1O | > 100000
COc1ccc(COc2cc(OC)c(OC)c(OC)c2)cc1OCC=O | 41000
COc1ccc(OCc2cc(OC)c(OC)c(OC)c2)cc1CO | > 100000
COc1ccc(/C=C\c2ccc(C)c(C)c2)cc1O | 3100
COc1ccc(/C=C\c2cc(F)c(F)c(F)c2)cc1O | 4500
COc1cc(C(=O)/C=C/c2cc(F)c(OC)c(F)c2)cc(OC)c1OC | 12000
COc1ccc(/C=C(/C)c2cc(OC)c(OC)c(OC)c2)cc1 | 1300
COc1ccc(/C=C(\C)C(O)c2cc(OC)c(OC)c(OC)c2)cc1O (stereo not given) | > 10000
COc1ccc(/C=C\c2cc(C)c(C)c(C)c2)cc1F | 700
COc1ccc(C(=O)/C=C/c2cc(F)c(OC)c(F)c2)c(OC)c1OC | 31000
COc1ccc(C(=O)/C=C/c2cc(O)c(O)c(O)c2)c(OC)c1OC | > 100000
CCOc1cc(/C=C\c2ccc(OC)c(F)c2)cc(OCC)c1OCC | 1200
COc1ccc(CC(C)C(=O)c2cc(OC)c(OC)c(OC)c2)cc1O (stereo not given) | 4000
COc1ccc(/C=C(/C)c2cc(OC)c(OC)c(OC)c2)cc1O | 130

SMILES | IC50 [nM]
COc1ccc(/C(C)=C/c2cc(OC)c(OC)c(OC)c2)cc1O | 9000
COc1ccc(/C=C\c2cc(O)c(OC)c(OC)c2)cc1F | 1250
COc1ccc(/C=C\c2ccc(C)c(C)c2)cc1F | 6600
CC/C(=C/c1ccc(OC)c(O)c1)c1cc(OC)c(OC)c(OC)c1 | 130
COc1ccc(/C=C\c2cc(F)c(F)c(F)c2)cc1F | 5500
COc1ccc(/C=C/C(=O)c2ccc(OC)c(OC)c2OC)cc1F | 7900
COc1ccc(COc2cc(OC)c(OC)c(OC)c2)cc1O | 7200
COc1ccc(Oc2cc(OC)c(OC)c(OC)c2)cc1O | 11000
COc1ccc(COc2cc(OC)c(OC)c(OC)c2)cc1OCC(O)CO (stereo not given) | > 100000
CO/C(=C\c1ccc(OC)c(O)c1)C(=O)c1cc(OC)c(OC)c(OC)c1 | 510
COc1cc(/C=C\c2ccc(C)c(C)c2)cc(OC)c1OC | 2000
COc1ccc(/C=C(\C)C(=O)c2cc(OC)c(OC)c(OC)c2)cc1[N+](=O)[O-] | > 10000
COc1ccc(/C=C/C(=O)c2cc(OC)c(OC)c(OC)c2)cc1N | 2000
COc1ccc(/C=C\c2cc(OC)c(OC)c(OC)c2)cc1 | 200
COc1ccc(OC)c(C(=O)/C(C)=C/c2ccc(N(C)C)cc2)c1 | 10000

Further compounds by falling IC50, results first:

IC50 [nM] | SMILES
3400 | CCc1ccc(/C=C\c2cc(OC)c(OC)c(OC)c2)cc1
2500 | COc1ccc(/C=C\c2ccccc2)cc1O
2400 | COc1cc(C(=O)/C(C)=C/c2cc(F)c(OC)c(F)c2)cc(OC)c1OC
1700 | CO/C(=C\c1cc(F)c(OC)c(F)c1)C(=O)c1cc(OC)c(OC)c(OC)c1
1200 | COc1ccc(/C=C/C(=O)c2cc(OC)c(OC)c(OC)c2)cc1F
650 | COc1ccc(/C=C\c2cc(C)c(C)c(C)c2)cc1
650 | COc1ccc(/C=C(\C)C(=O)c2cc(OC)c(OC)c(OC)c2)cc1F
620 | COc1ccc(/C=C/C(=O)c2cc(OC)c(OC)c(OC)c2)cc1O
560 | COc1ccc(OCc2cc(OC)c(OC)c(OC)c2)cc1C=O
500 | CCOc1cc(/C=C\c2ccc(OC)c(O)c2)cc(OCC)c1OCC
470 | CO/C(=C\c1ccc(OC)c(F)c1)C(=O)c1cc(OC)c(OC)c(OC)c1
460 | COc1ccc(/C=C(\C)C(=O)c2cc(OC)c(OC)c(OC)c2)cc1O
450 | COc1ccc(/C=C/C(=O)c2ccc(OC)c(OC)c2OC)cc1O
120 | COc1ccc(/C=C\c2cc(C)c(C)c(C)c2)cc1O
